Assay results taken from patent US6270389A, “Method for forming an electron-emitting device using a metal-containing composition” (priority 1995, dated 2001).

Assays:
[1] = Thermogravimetric analysis (TG) in the air; format: physicochemical; details: for Decomp. Start.: Table 1
[2] = water
[3] = Electron-emitting characteristics of device measured with measurement evaluation apparatus; details: Table 1
Description: FIG. 4 is a schematic block diagram of an arrangement comprising a vacuum chamber that can be used as a measuring system for determining the performance of an electron-emitting device of the type under consideration.
Referring to FIG. 4, those components that are similar to or same as those of FIGS. 1A and 1B are denoted by the same reference symbols. The measuring system includes a vacuum chamber 45 and a vacuum pump 46. An electron-emitting device is placed in the vacuum chamber 45. The device comprises a substrate 1, a pair of device electrodes 2 and 3, an electroconductive thin film 4 and an electron-emitting region 5. Otherwise, the measuring system has a power source 41 for applying a device voltage Vf to the device, an ammeter 40 for metering the device current If running through the thin film 4 between the device electrodes 2 and 3, an anode 44 for capturing the emission current Ie produced by electrons emitted from the electron-emitting region of the device, a high voltage source 43 for applying a voltage to the anode 44 of the measuring system and another ammeter 42 for metering the emission current Ie produced by electrons emitted from the electron-emitting region 5 of the device. For determining the performance of the electron-emitting device, a voltage between 1 and 10 KV may be applied to the anode, which is spaced apart from the electron emitting device by distance H which is between 2 and 8 mm.
The electron-emitting characteristics of the electron-emitting device formed as described above were evaluated by using the measurement evaluation apparatus in FIG. 4. Note that, in this example, the distance between an anode and the electron-emitting device was set to be 4 mm, and the potential of the anode was set to be 1 kV. The degree of vacuum in the vacuum apparatus in measurement of the electron-emitting characteristics was 10^-8 torr.
The measurement evaluation apparatus described above was used, and a device voltage was applied across the electrodes 2 and 3 of the electron-emittingdevice. When a device current If and an emission current Ie flowing at this time were measured, current-voltage characteristics shown in FIG. 5 were obtained. In this device, the emission current Ie began to increase from a device voltage of about 6.3 V, and the device current If became 1.9 mA at the device voltage of 14 V. At this time, the emission current Ie of 0.7 μA was obtained.
The electron-emitting characteristics of the device manufactured as described above were measured. FIG. 4 is a schematic view showing the arrangement of a measurement evaluation apparatus. Reference numerals in FIG. 4 follow the reference numerals in the above examples. Note that, in this example, the distance between an anode and the electron-emitting device was set to be 4 mm, the potential of the anode was set to be 1 KV, and the degree of vacuum in a vacuum apparatus in measurement of the electron-emitting characteristics was set to be 10^-6 torr.
The measurement evaluation apparatus described above was used, and a device voltage was applied across the electrodes 2 and 3 of the electron-emittingdevice. When a device current If and an emission current Ie flowing at this time were measured, current-voltage characteristics shown in FIG. 5 were obtained. In the device in this example, the emission current Ie begun to sharply increase from a device voltage of about 8 V, the device current If and the emission current Ie respectively became 2.3 mA and 1.2 μA at the device voltage of 16 V, and electron-emitting efficiency .eta.=Ie/If (%) was 0.05%.
Note that, in this example, the distance between an anode and the electron-emitting device was set to be 4 mm, the potential of the anode was set to be 1 KV, and the degree of vacuum in a vacuum apparatus in measurement of the electron-emitting characteristics was set to be 10^-7 torr. […]

[4] = X-ray diffraction
[5] = scanning type differential thermal analysis in the air

Row | Compound | temperature at which decomposition ended ([1]; TG in the air) [°C] | Solubility [2] [Pdwt %] | Decomp. Start. [1] [°C] | Ie [3] [mA] | Ie/If [3] [%] | If [3] [mA] | other results
1 | CC(=O)[O-].CC(=O)[O-].CC(O)CN.CC(O)CN.[Ni+2] (centres unmarked) [NAMiP, nickel acetate-bis(1-amino-2-propanol)] | 406 | – | – | – | – | – | –
2 | CC(=O)[O-].CC(=O)[O-].CC(C)(C)NCCO.CC(C)(C)NCCO.[Pd+2] [Ex. 26] | – | 0.7 | 166 | 1.0 | 0.040 | 2.5 | –
3 | CC(=O)[O-].CC(=O)[O-].CC(C)NCCO.CC(C)NCCO.[Pd+2] [Ex. 25] | – | 3.7 | 155 | 1.1 | 0.039 | 2.8 | –
4 | CC(=O)[O-].CC(=O)[O-].CNCCO.CNCCO.[Pd+2] [Ex. 22] | – | 16.0 | 155 | 1.3 | 0.045 | 2.9 | –
5 | palladium acetate bis(dipropylamine) [reference compound] | – | – | – | – | – | – | palladium lost in thermal decomposition ([1]; TG in the atmosphere): 29%; weight reduction end temperature ([1]; TG in the atmosphere): 250 °C; weight reduction start temperature ([1]; TG in the atmosphere): 122 °C; residue weight at 350° C. relative to theoretical weight ([1]; TG in the atmosphere, 350° C.): 71%
6 | nickel acetate-bis(N-butylethanolamine) [NABE] | 395 | – | – | – | – | – | –
7 | NCCO.NCCO.NCCO.O.O.O=C[O-].O=C[O-].[Ni+2] [NFME, nickel formate-tris(ethanolamine)-2-hydrate] | 403 | – | – | – | – | – | –
8 | CC(=O)[O-].CC(=O)[O-].CCCNCCO.CCCNCCO.[Pd+2] [Ex. 24] | – | 4.0 | 154 | 1.0 | 0.038 | 2.6 | –
9 | palladium acetate-di(N-butylethanolamine) [PABE] | 245 | – | – | – | – | – | –
10 | CC(=O)[O-].CC(=O)[O-].NCCCO.NCCCO.NCCCO.NCCCO.[Pd+2] [Ex. 19] | – | – | 173 | 1.1 | 0.041 | 2.7 | –
11 | palladium acetate-diethanolamine complex [PA-DE] | 305 | – | – | – | – | – | decomposition start temperature ([1]; TG in the air): 100 °C; sublimation properties ([1]; TG in the air): no sublimation properties
12 | CC(=O)[O-].CC(=O)[O-].NCCCO.NCCCO.[Ni+2] [NAMP, nickel acetate-bis(3-amino-propanol)] | 393 | – | – | – | – | – | –
13 | CC(=O)[O-].CC(=O)[O-].NCCCCO.NCCCCO.NCCCCO.NCCCCO.[Pd+2] [Ex. 20] | – | 10.5 | 186 | – | 0.052 | 2.3 | –
14 | CC(=O)[O-].CC(=O)[O-].CNCCO.CNCCO.[Ni+2] [NANME, nickel acetate-bis(N-methylethanolamine)] | 379 | – | – | – | – | – | –
15 | CC(=O)[O-].CC(=O)[O-].CCNCCO.CCNCCO.[Pd+2] [Ex. 23] | – | 8.4 | 153 | 1.1 | 0.042 | 2.6 | –
16 | palladium acetate-bis(N,N-dibutylethanolamine) [PADBE] | 253 | – | – | – | – | – | –
17 | CC(=O)[O-].CC(=O)[O-].NCCO.NCCO.NCCO.NCCO.[Pd+2] [PA-ME, palladium acetate-monoethanolamine complex] | 310 | – | – | – | – | – | crystallinity of dried thin film [4]: non-crystallized; decomposition temperature [5]: 272 °C; decomposition start temperature ([1]; TG in the air): 100 °C; sublimation properties ([1]; TG in the air): no sublimation properties; residue weight at 350° C., in words ([1]; TG in the air, 350° C.): equal to a theoretical weight
